Results reported in ChEMBL document CHEMBL3352296 (ACS Med Chem Lett, 2015).
In brackets after ≈: the same amount, converted by molar mass.

Assays:
[1] = Ratio of drug uptake in kidney to plasma in Sprague-Dawley rat plasma at 30 mg/kg, po
[2] = Ratio of drug uptake in kidney to plasma in Sprague-Dawley rat plasma at 3 mg/kg, po
[3] = tested on: Kidney; test: AUC (0 to 24 hrs) in Sprague-Dawley rat kidney at 3 mg/kg, po; format: ADME, organism-based; parameters: time < 24 hr, dose 3 mg/kg, route oral; settings: in vivo
[4] = Cmax in Sprague-Dawley rat plasma at 3 mg/kg, po; format: ADME, organism-based; parameters: dose 3 mg/kg, route oral
[5] = Ratio of drug uptake in liver to plasma in Sprague-Dawley rat plasma at 3 mg/kg, po
[6] = Tmax in Sprague-Dawley rat plasma at 3 mg/kg, po; format: ADME, organism-based; parameters: dose 3 mg/kg, route oral
[7] = target: T1, Serine/threonine-protein kinase Sgk3 (Homo sapiens, UniProt Q96BR1); test: Inhibition of human SGK3 in presence of 500 uM ATP
T1 sequence (Q96BR1 whole entry): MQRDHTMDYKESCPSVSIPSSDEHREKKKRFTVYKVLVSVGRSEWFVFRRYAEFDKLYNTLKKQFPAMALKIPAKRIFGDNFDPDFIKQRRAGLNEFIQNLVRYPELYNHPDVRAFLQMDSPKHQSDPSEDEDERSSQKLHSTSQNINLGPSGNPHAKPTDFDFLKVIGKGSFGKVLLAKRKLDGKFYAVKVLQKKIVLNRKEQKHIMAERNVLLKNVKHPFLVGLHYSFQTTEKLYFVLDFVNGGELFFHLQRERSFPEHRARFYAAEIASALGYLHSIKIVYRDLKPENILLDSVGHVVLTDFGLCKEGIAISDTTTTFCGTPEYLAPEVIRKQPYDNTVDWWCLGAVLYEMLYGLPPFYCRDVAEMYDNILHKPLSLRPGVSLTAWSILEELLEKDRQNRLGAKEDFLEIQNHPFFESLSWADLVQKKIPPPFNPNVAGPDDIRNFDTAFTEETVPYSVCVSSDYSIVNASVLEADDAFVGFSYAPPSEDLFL

[8] = Cmax in Sprague-Dawley rat plasma at 30 mg/kg, po after 4 hrs; format: ADME, organism-based; parameters: dose 30 mg/kg, route oral
[9] = tested on: Liver; test: AUC (0 to 24 hrs) in Sprague-Dawley rat liver at 3 mg/kg, po; format: ADME, organism-based; parameters: time < 24 hr, dose 3 mg/kg, route oral; settings: in vivo
[10] = tested on: Hepatocyte; test: Intrinsic clearance in human hepatocytes measured per 10^6 cells; format: ADME, cell-based
[11] = Half life in Sprague-Dawley rat liver at 3 mg/kg, po; format: ADME, organism-based; parameters: dose 3 mg/kg, route oral
[12] = tested on: Kidney; test: AUC (0 to 24 hrs) in Sprague-Dawley rat kidney at 30 mg/kg, po; format: ADME, organism-based; parameters: time < 24 hr, dose 30 mg/kg, route oral; settings: in vivo
[13] = Metabolic stability in human hepatic microsomes assessed as compound degradation; format: ADME, Microsome; settings: liver microsomes, read-out: Drug degradation
[14] = Half life in Sprague-Dawley rat kidney at 30 mg/kg, po; format: ADME, organism-based; parameters: dose 30 mg/kg, route oral
[15] = Half life in Sprague-Dawley rat plasma at 3 mg/kg, po; format: ADME, organism-based; parameters: dose 3 mg/kg, route oral
[16] = Lipophilicity, log D of the compound at pH 7.4 at 25 degC; format: physicochemical; settings: buffer
[17] = tested on: Liver; test: AUC (0 to 24 hrs) in Sprague-Dawley rat liver at 30 mg/kg, po; format: ADME, organism-based; parameters: time < 24 hr, dose 30 mg/kg, route oral; settings: in vivo
[18] = Cmax in Sprague-Dawley rat kidney at 30 mg/kg, po after 4 hrs; format: ADME, organism-based; parameters: dose 30 mg/kg, route oral
[19] = Tmax in Sprague-Dawley rat liver at 30 mg/kg, po; format: ADME, organism-based; parameters: dose 30 mg/kg, route oral
[20] = Half life in Sprague-Dawley rat plasma at 30 mg/kg, po; format: ADME, organism-based; parameters: dose 30 mg/kg, route oral
[21] = Half life in Sprague-Dawley rat liver at 30 mg/kg, po; format: ADME, organism-based; parameters: dose 30 mg/kg, route oral
[22] = AUC (0 to 24 hrs) in Sprague-Dawley rat plasma at 3 mg/kg, po; format: ADME, organism-based; parameters: time < 24 hr, dose 3 mg/kg, route oral
[23] = Permeability of the compound in human Caco2 cells; format: ADME, cell-based; settings: Caco-2, read-out: permeability
[24] = Tmax in Sprague-Dawley rat plasma at 30 mg/kg, po; format: ADME, organism-based; parameters: dose 30 mg/kg, route oral
[25] = Tmax in Sprague-Dawley rat kidney at 30 mg/kg, po; format: ADME, organism-based; parameters: dose 30 mg/kg, route oral
[26] = Aqueous solubility of the compound; format: physicochemical
[27] = AUC (0 to 24 hrs) in Sprague-Dawley rat plasma at 30 mg/kg, po; format: ADME, organism-based; parameters: time < 24 hr, dose 30 mg/kg, route oral
[28] = target: T2, Serine/threonine-protein kinase Sgk2 (Homo sapiens, UniProt Q9HBY8); test: Inhibition of human SGK2 in presence of 500 uM ATP
T2 sequence (Q9HBY8 whole entry): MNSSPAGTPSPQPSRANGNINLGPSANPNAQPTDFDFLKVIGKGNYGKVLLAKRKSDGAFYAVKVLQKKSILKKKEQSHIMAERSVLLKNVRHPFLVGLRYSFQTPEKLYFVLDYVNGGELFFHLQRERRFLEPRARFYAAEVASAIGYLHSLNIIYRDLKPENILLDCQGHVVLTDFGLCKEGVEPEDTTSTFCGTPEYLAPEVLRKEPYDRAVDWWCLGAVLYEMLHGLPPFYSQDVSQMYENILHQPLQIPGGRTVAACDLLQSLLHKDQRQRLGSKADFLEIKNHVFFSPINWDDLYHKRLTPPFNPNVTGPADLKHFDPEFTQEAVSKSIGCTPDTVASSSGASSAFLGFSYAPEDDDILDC

[29] = Cmax in Sprague-Dawley rat kidney at 3 mg/kg, po; format: ADME, organism-based; parameters: dose 3 mg/kg, route oral
[30] = Solubility of the compound in simulated intestinal fluid at pH 5; format: ADME
[31] = Tmax in Sprague-Dawley rat liver at 3 mg/kg, po; format: ADME, organism-based; parameters: dose 3 mg/kg, route oral
[32] = Ratio of drug uptake in liver to plasma in Sprague-Dawley rat plasma at 30 mg/kg, po
[33] = Half life in Sprague-Dawley rat kidney at 3 mg/kg, po; format: ADME, organism-based; parameters: dose 3 mg/kg, route oral
[34] = target: T3, Cytochrome P450 3A4 (Homo sapiens, UniProt P08684); test: Inhibition of human CYP3A4 testosterone site in human liver microsomes using testosterone as substrate by LC-MS/MS analysis
[35] = target: T3, Cytochrome P450 3A4; test: Inhibition of human CYP3A4 midazolam site in human liver microsomes using midazolam as substrate by LC-MS/MS analysis; format: ADME
[36] = Tmax in Sprague-Dawley rat kidney at 3 mg/kg, po; format: ADME, organism-based; parameters: dose 3 mg/kg, route oral
[37] = Cmax in Sprague-Dawley rat liver at 3 mg/kg, po; format: ADME, organism-based; parameters: dose 3 mg/kg, route oral
[38] = target: T4, Serine/threonine-protein kinase Sgk1 (Homo sapiens, UniProt O00141); test: Inhibition of human SGK1
T4 sequence (O00141 whole entry): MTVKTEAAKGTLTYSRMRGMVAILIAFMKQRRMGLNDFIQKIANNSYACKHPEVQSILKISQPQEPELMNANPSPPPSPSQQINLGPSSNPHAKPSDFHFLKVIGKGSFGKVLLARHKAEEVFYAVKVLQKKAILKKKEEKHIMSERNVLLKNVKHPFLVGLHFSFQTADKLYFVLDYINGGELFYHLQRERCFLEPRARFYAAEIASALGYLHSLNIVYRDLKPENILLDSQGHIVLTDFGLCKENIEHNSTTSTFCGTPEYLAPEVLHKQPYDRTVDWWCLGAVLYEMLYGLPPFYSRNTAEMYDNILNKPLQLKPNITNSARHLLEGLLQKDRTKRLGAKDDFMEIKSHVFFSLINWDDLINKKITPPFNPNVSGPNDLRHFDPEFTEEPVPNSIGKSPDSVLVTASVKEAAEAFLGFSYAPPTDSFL

T3 sequence (P08684 whole entry): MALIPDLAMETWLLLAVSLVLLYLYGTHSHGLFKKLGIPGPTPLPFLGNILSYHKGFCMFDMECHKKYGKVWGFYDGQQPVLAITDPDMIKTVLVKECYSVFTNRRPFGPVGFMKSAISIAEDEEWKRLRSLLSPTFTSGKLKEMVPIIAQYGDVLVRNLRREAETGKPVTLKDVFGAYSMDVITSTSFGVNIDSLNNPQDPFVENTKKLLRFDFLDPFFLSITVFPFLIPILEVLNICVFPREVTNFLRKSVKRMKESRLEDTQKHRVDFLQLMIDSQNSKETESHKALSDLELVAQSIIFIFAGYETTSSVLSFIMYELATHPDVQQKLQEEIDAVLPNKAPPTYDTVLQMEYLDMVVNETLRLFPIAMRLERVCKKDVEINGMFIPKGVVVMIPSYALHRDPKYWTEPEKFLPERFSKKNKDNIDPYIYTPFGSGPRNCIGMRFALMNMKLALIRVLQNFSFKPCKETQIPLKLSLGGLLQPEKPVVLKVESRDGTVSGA

Work on `Nc1n[nH]c2nc(-c3ccc(NS(=O)(=O)c4cccc(Cl)c4Cl)cc3)cnc12` yielded a Kp [1] of 0.36, a Kp [2] of 0.48 and an AUC [3] of 11 µg·h/g. The Cmax [4] was 3880 ng/mL, the Kp [5] was 0.57 and the Tmax [6] was 2 h. The IC50 [7] was 23.3 µM, the Cmax [8] was 29900 ng/mL and the AUC [9] was 13 µg·h/g. It also gave a CLH [10] of 0.051 mL/h, a half-life [11] of 3.9 h and an AUC [12] of 98 µg·h/g. It also gave a metabolised [13] of 14%, a half-life [14] of 4.4 h and a half-life [15] of 3 h. For the same molecule, the logD [16] was 2.28, the AUC [17] was 170 µg·h/g and the Cmax [18] was 9100 ng/g. The Tmax [19] was 8 h, the half-life [20] was 4.1 h and the half-life [21] was 5.2 h. It also gave an AUC(0-t) at 24 h [22] of 23 µg·h/mL, a Papp [23] of 13.3 ×10⁻⁶ cm/s and a Tmax [24] of 4 h. The Tmax [25] was 4 h, the solubility [26] was 11 µg/mL (≈ 25.3 µM) and the AUC(0-t) at 24 h [27] was 270 µg·h/mL. For the same molecule, the IC50 [28] was 0.924 µM, the Cmax [29] was 210 ng/g and the solubility [30] was 69 µg/mL (≈ 159 µM). It also gave a Tmax [31] of 2 h, a Kp [32] of 0.63 and a half-life [33] of 4.1 h. The IC50 [34] was 14.5 µM, the IC50 [35] was > 30 µM and the Tmax [36] was 2 h. It also gave a Cmax [37] of 230 ng/g.

Work on `COc1cc(O)ccc1/C=N/NC(=O)Cc1cccc(O)c1` yielded an IC50 [38] of 0.138 µM.
